Assays:
leukotriene biosynthesis = test: In vivo inhibition of leukotriene biosynthesis after oral administration, rat peritoneal anaphylaxis model; details: 0.25 h, 200 micro mol/kg oral dose, one hour prior to antigen challenge, peritoneal fluid 15 minutes after challenge, vs mean of control group
Description: Inhibition of the biosynthesis of leukotrienes in vivo after oral administration of compound was determined using a rat peritoneal anaphylaxis model in a similiar manner as that described by Young and coworkers (Young, P. R.; Dyer, R. D.; Carter, G. W. Fed. Proc., Fed. Am Soc.Exp. Biol. 1985, 44 1185). In this model rats were injected intraperitoneally (ip) with rabbit antibody to bovine serum albumin (BSA) and three hours later injected ip with BSA to induce an antigen-antibody response. Rats were sacrificed 15 minutes after this challenge and the peritoneal fluids were collected and analyzed for leukotriene levels. Test compounds were administered by gauge one hour prior to the antigen challenge. Percent inhibition values were determined by comparing the treatment group to the mean of the control group.

5-lipoxygenase = biological target: T1, 5-lipoxygenase (Rattus norvegicus, UniProt P12527); test: Inhibition of 5-lipoxygenase (20,000×g supernatant from homogenized RBL-1 cells); type: biochemical; details: in vitro, read-out: IC50 (concentration of compound producing 50% enzyme inhibition)
T1 construct: 20,000×g supernatant from homogenized RBL-1 cells; endogenous in cells; host or cells: RBL-1 cells (20,000×g supernatant of homogenate)
T1 sequence (P12527 1-673): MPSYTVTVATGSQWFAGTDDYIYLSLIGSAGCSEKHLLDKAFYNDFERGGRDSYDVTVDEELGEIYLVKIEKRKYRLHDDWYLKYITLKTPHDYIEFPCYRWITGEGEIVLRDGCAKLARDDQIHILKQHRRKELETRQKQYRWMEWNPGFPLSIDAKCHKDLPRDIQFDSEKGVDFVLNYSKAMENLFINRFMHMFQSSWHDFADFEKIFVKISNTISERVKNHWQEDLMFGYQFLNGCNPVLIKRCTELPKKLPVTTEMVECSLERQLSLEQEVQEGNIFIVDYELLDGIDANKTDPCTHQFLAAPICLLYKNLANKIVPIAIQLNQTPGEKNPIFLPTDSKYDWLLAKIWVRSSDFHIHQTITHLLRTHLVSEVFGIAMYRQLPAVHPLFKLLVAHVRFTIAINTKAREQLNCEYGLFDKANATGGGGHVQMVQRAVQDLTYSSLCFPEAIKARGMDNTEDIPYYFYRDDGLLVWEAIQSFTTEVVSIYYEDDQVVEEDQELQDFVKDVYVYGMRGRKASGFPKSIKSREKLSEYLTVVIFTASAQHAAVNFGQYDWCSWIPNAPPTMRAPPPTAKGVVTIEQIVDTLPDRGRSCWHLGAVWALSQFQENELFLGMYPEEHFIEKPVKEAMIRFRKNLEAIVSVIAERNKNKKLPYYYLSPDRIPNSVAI
Description: Inhibition of 5-lipoxygenase activity was determined using the 20,000×g supernatant from homogenized RBL-1 cells in a similiar manner as that described by Dyer and coworkers (Dyer, R. D.; Haviv., F.; Hanel, A. M.; Bornemeier, D. A.; Carter, G. W. Fed. Proc.,Fed.Am.Soc. Exp. Biol. 1984, 43,1462a). IC50 values (concentration of compound producing 50% enzyme inhibition) were calculated by linear regression analysis of percentage inhibition versus log inhibitor concentration plots.

Compound: CC1CN(c2ccccc2)NC(=O)N1 (racemic) [Example 81, D,L-5-methyl-1-phenyl-2H,4H-tetrahydro-1,2,4-triazin-3-one]
- inhibition in vivo at 200 µmol/kg (leukotriene biosynthesis): 84%

Compound: CC(C)C1CN(c2ccccc2)NC(=O)N1 (racemic) [Example 82, D,L-5-i-propyl-1-phenyl-2H,4H-tetrahydro-1,2,4-triazin-3-one]
- IC50 (5-lipoxygenase): 7 µM

Compound: CCCCC1CN(c2ccccc2)NC(=O)N1 (racemic) [Example 83, D,L-5-n-butyl-1-phenyl-2H 4H-tetrahydro-1,2,4-triazin-3-one]
- IC50 (5-lipoxygenase): 2 µM

Compound: CC1CN(c2cccc(Cl)c2)NC(=O)N1 (racemic) [Example 85, D,L-5-methyl-1-(3-chlorophenyl)-2H,4H-tetrahydro-1,2,4-triazin-3-one]
- IC50 (5-lipoxygenase): 3 µM

Compound: CCC1CN(c2ccccc2)NC(=O)N1 (racemic) [Example 86, D,L-5-ethyl-1-phenyl-2H,4H-tetrahydro-1,2,4-triazin-3-one]
- IC50 (5-lipoxygenase): 7 µM

Compound: N#Cc1cccc(N2CCCC(=O)N2)c1 [Example 1, 1-(3'-cyanophenyl)-2H-tetrahydropyridazin-3-one]
- IC50 (5-lipoxygenase): 11 µM

Compound: COc1cccc(N2CCCC(=O)N2)c1 [Example 3, 1-(3'-methoxyphenyl)-2H-tetrahydropyridazin-3-one]
- IC50 (5-lipoxygenase): 6 µM

Compound: O=C1CCCN(c2ccc(Oc3ccccc3)cc2)N1 [Example 6, 1-(4'-phenoxyphenyl)-2H-tetrahydropyridazin-3-one]
- IC50 (5-lipoxygenase): 2 µM

Compound: O=C1CCCN(c2cccc(C(F)(F)F)c2)N1 [Example 8, 1-(3'-trifluoromethylphenyl)-2H-tetrahydropyridazin-3-one]
- IC50 (5-lipoxygenase): 5 µM

Compound: CCc1cccc(N2CCCC(=O)N2)c1 [Example 10, 1-(3'-ethylphenyl)-2H-tetrahydropyridazin-3-one]
- IC50 (5-lipoxygenase): 3 µM

Compound: CCCCCCCCc1ccc(N2CCCC(=O)N2)cc1 [Example 15, 1-(4'-octylphenyl)-2H-tetrahydropyridazin-3-one]
- IC50 (5-lipoxygenase): 6 µM

Compound: CCOC(=O)c1cccc(N2CCCC(=O)N2)c1 [Example 16, 1-(3'-ethoxycarbonylphenyl)-2H-tetrahydropyridazin-3-one]
- IC50 (5-lipoxygenase): 5 µM

Compound: Cc1cc(C)cc(N2CCCC(=O)N2)c1 [Example 24, 1-(3',5'-dimethylphenyl)-2H-tetrahydropyridazin-3-one]
- IC50 (5-lipoxygenase): 3 µM

Compound: O=C1CCCN(c2cc(Cl)cc(Cl)c2)N1 [Example 26, 1-(3',5'-dichlorophenyl)-2H-tetrahydropyridazin-3-one]
- IC50 (5-lipoxygenase): 1 µM

Compound: CCCCC1CCN(c2ccccc2)NC1=O (stereo not drawn) [Example 38, 1-phenyl-4-butyl-2H-tetrahydropyridazin-3-one]
- IC50 (5-lipoxygenase): 0.6 µM

Compound: CCCCC1CC(=O)NN(c2ccccc2)C1 (stereo not drawn) [Example 40, 1-phenyl-5-butyl-2H-tetrahydropyridazin-3-one]
- IC50 (5-lipoxygenase): 0.5 µM

Compound: O=C1CCCN(c2cccc(Cl)c2)N1 [Example 46, 1-(3'-chlorophenyl)-2H-tetrahydropyridazin-3-one]
- IC50 (5-lipoxygenase): 2.5 µM

Compound: O=C1CCCN(c2ccccc2F)N1 [Example 51, 1-(2'-fluorophenyl)-2H-tetrahydropyridazin-3-one]
- IC50 (5-lipoxygenase): 10 µM

Compound: O=C1NCCN(c2ccccc2)N1 [Example 68, 1-(phenyl)-2 H,4 H-tetrahydro-1,2,4-triazin-3-one]
- IC50 (5-lipoxygenase): 21 µM
- inhibition in vivo at 200 µmol/kg (leukotriene biosynthesis): 85%

Compound: Cc1cccc(N2CCNC(=O)N2)c1 [Example 70, 1-(3'-methylphenyl)-2 H,4 H-tetrahydro-1,2,4-triazin-3-one]
- IC50 (5-lipoxygenase): 15 µM
- inhibition in vivo at 200 µmol/kg (leukotriene biosynthesis): 66%

Compound: O=C1NCCN(c2cccc(Br)c2)N1 [Example 73, 1-(3'-bromophenyl)-2 H,4 H-tetrahydro-1,2,4-triazin-3-one]
- IC50 (5-lipoxygenase): 5 µM
- inhibition in vivo at 200 µmol/kg (leukotriene biosynthesis): 46%

Compound: CCc1cccc(N2CCNC(=O)N2)c1 [Example 74, 1-(3'-ethylphenyl)-2 H,4 H-tetrahydro-1,2,4-triazin-3-one]
- IC50 (5-lipoxygenase): 13 µM
- inhibition in vivo at 200 µmol/kg (leukotriene biosynthesis): 58%

Compound: CSc1cccc(N2CCNC(=O)N2)c1 [Example 75, 1-(3'-methylthiophenyl)-2 H,4 H-tetrahydro-1,2,4-triazin-3-one]
- IC50 (5-lipoxygenase): 14 µM
- inhibition in vivo at 200 µmol/kg (leukotriene biosynthesis): 73%

Compound: O=C1NCCN(c2cccc(C(F)(F)F)c2)N1 [Example 76, 1-(3'-trifluoromethylphenyl)-2 H,4 H-tetrahydro-1,2,4-triazin-3-one]
- IC50 (5-lipoxygenase): 17 µM

Compound: O=C1NCCN(c2cccc(Cl)c2)N1 [Example 78, 1-(3'-chlorophenyl)-2 H,4 H, tetrahydro-1,2,4-triazin-3-one]
- IC50 (5-lipoxygenase): 6 µM
- inhibition in vivo at 200 µmol/kg (leukotriene biosynthesis): 80%

Compound: O=C1NCCN(c2cccc(OCc3ccccc3)c2)N1 [Example 79, 1-(3'-benzyloxyphenyl)-2 H,4 H-tetrahydro-1,2,4-triazin-3-one]
- IC50 (5-lipoxygenase): 1 µM

Compound: Cc1cc(C)cc(N2CCNC(=O)N2)c1 [Example 80, 1-(3',5'-dimethylphenyl)-2 H,4 H-tetrahydro-1,2,4-triazin-3-one]
- IC50 (5-lipoxygenase): 12 µM

Compound: CC1(C)CN(c2ccccc2)NC(=O)N1 [Example 87, 5,5-dimethyl-1-phenyl-2H,4H-tetrahydro-1,2,4-triazin-3-one]
- IC50 (5-lipoxygenase): 7 µM

Compound: O=C1NCCN(c2cccc(F)c2)N1 [Example 88, 1-(3-fluorophenyl)-2H,4H-tetrahydro-1,2,4-triazin-3-one]
- IC50 (5-lipoxygenase): 19 µM

Compound: O=C1NCCN(c2ccccn2)N1 [Example 90, 1-(2-pyridyl)-2H,4H-tetrahydro-1,2,4-triazin-3-one]
- IC50 (5-lipoxygenase): 26 µM

Compound: O=C1NN(c2ccccc2)CCN1Cc1ccccc1 [Example 99, 4-Benzyl-1-phenyl-2H,4H-tetrahydro-1,2,4-triazin-3-one]
- IC50 (5-lipoxygenase): 8 µM

Compound: S=C1NCCN(c2ccccc2)N1 [Example 102, 1-Phenyl-2H,4H-tetrahydro-1,2,4-triazin-3-thione]
- IC50 (5-lipoxygenase): 17 µM

Compound: S=C1NCCN(c2cccc(Cl)c2)N1 [Example 103, 1-(3-Chlorophenyl)-2H,4H-tetrahydro-1,2,4-triazin-3-thione]
- IC50 (5-lipoxygenase): 5 µM

Compound: Cc1cccc(N2CCCC(=S)N2)c1 [Example 106, 1-(3'-methylphenyl)-2H-tetrahydro-pyridazin-3-thione]
- IC50 (5-lipoxygenase): 1 µM

Compound: CC(=O)N1CCN(c2ccccc2)NC1=O [Example 107, 4-Acetyl-1-phenyl-2H,4H-tetrahydro-1,2,4-triazin-3-one]
- IC50 (5-lipoxygenase): 3 µM

Compound: CC(C)C(=O)N1CCN(c2ccccc2)NC1=O [Example 109, 4-Isobutyryl-1-phenyl-2H,4H-tetrahydro-1,2,4-triazin-3-one]
- IC50 (5-lipoxygenase): 1 µM

Compound: CC(=O)N1CCN(c2cccc(Cl)c2)NC1=O [Example 111, 4-Acetyl-1-(3-chlorophenyl)-2H,4H-tetrahydro-1,2,4-triazin-3-one]
- IC50 (5-lipoxygenase): 1 µM
- inhibition in vivo at 200 µmol/kg (leukotriene biosynthesis): 74%

Compound: O=C1CCCN(c2ccccc2)N1COCc1ccccc1 [Example 113, 1-phenyl-2-benzyloxymethyl-2 H-tetrahydropyridazin-3-one]
- IC50 (5-lipoxygenase): 71 µM
